Assay [1] relates to human fibroblasts. It counts as cell-based.
Assay [2] concerns MxA, ISG-15, OAS-1, and ISG-56 mRNA. It counts as cell-based, human.

As to IFN-α, the “protection of fibroblasts from VSV” value in assay [1] was “completely protect”.

On to `CCCC(CCC)C(=O)O` [VPA, valproic acid], for which the “basal ISG mRNA levels in SW-R” value in assay [2] is “reduced basal mRNA levels for three out of four ISGs”.
